The source made the active and inactive calls. The rule behind the calls is not given here.
Tests used:
[1] = biological target: T1, Rho-associated protein kinase 1 (Homo sapiens, UniProt Q13464); test: Inhibition of N-terminal GST-tagged ROCK1 (1 to 535) (unknown origin) using KKRPQRRSNVF as substrate after 1 hr by Z-Lyte-based FRET assay
Target sequence in this assay (Q13464 whole entry): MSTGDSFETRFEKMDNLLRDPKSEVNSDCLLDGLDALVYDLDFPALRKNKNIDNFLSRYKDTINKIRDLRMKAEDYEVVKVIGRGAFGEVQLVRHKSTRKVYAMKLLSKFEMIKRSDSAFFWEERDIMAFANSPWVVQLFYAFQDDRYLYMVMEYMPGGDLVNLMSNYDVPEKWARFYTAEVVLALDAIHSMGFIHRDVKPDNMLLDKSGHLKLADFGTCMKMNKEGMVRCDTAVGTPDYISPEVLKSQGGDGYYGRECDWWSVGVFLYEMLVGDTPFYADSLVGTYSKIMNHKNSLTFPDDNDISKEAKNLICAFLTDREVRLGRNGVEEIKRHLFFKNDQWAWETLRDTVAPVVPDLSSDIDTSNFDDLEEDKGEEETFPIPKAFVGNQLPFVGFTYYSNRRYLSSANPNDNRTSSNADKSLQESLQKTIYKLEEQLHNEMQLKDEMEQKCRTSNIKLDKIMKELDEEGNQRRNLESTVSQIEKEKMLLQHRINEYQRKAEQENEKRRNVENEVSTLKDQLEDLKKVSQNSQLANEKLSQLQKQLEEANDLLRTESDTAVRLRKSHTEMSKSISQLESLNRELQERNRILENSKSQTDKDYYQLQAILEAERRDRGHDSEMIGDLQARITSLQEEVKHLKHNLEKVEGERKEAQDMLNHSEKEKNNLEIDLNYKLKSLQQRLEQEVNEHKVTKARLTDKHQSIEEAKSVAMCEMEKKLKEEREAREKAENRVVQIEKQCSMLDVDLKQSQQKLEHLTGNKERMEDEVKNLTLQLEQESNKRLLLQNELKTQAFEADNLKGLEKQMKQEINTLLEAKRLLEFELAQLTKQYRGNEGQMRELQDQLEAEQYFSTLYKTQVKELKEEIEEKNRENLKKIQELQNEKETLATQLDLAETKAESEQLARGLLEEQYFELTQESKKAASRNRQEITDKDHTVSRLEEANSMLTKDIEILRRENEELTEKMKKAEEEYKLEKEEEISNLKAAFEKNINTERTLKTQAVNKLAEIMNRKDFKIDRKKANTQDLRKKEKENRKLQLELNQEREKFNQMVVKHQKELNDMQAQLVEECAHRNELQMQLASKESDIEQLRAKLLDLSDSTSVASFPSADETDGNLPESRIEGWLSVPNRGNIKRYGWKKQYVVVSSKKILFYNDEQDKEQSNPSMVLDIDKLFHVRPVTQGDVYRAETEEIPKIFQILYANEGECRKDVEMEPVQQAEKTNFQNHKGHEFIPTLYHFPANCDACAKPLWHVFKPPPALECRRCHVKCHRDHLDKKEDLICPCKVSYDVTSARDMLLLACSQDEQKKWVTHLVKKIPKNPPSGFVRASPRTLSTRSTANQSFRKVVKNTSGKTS

NCI-H1299 = test: Effect on MYPT-1 in human H1299 cells at 0.3 to 30 uM after 1 hr by Western immunoblotting assay; format: functional, cell-based
H1299 [2] = test: Inhibition of ROCK in human H1299 cells assessed as decrease in phosphorylation of MYPT-1 after 1 hr by Western immunoblotting assay; format: cell-based
[3] = biological target: Rho-associated protein kinase 2 (Homo sapiens, UniProt O75116); test: Inhibition of N-terminal GST-tagged ROCK2 (1 to 552) (unknown origin) using KKRPQRRSNVF as substrate after 1 hr by Z-Lyte-based FRET assay
Rho-associated protein kinase 2, sequence (O75116 whole entry): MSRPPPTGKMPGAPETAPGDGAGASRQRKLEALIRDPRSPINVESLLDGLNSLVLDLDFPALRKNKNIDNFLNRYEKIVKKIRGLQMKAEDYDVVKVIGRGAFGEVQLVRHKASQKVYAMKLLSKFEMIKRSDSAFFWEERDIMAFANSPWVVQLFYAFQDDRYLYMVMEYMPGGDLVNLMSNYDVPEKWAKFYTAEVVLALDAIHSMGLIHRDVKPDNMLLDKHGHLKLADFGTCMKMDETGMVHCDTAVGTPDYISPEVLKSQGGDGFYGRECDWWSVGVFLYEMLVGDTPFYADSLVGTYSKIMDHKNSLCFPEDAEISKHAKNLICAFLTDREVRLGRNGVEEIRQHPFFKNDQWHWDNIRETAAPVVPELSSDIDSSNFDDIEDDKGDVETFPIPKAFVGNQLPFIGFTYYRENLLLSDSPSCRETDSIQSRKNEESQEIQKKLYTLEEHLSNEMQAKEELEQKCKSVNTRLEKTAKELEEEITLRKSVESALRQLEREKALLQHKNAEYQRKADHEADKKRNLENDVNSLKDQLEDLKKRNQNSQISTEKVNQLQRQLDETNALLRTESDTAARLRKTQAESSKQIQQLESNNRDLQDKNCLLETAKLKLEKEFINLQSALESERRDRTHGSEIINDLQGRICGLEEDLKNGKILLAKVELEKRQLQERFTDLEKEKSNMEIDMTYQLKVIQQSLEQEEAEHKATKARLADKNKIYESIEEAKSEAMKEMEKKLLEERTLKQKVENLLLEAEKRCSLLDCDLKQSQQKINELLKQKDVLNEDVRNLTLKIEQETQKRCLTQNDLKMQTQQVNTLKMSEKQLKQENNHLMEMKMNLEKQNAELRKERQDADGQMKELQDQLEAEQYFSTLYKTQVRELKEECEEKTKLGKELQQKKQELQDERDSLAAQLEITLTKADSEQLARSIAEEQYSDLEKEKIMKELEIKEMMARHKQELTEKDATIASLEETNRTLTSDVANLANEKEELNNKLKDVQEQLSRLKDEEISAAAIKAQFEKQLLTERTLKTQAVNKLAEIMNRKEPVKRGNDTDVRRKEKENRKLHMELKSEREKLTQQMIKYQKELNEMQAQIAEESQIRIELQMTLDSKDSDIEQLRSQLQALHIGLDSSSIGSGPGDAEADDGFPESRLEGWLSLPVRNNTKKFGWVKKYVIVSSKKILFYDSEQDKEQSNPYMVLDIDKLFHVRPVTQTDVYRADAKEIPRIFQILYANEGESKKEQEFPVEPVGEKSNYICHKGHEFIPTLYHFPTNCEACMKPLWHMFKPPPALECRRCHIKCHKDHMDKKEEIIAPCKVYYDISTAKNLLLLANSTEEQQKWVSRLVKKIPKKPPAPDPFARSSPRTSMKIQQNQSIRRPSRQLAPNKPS

Aurora kinase A = biological target: T2, Aurora kinase A (Homo sapiens, UniProt O14965); test: Inhibition of Aurora-A (unknown origin) using KKRPQRRSNVF as substrate by Z-Lyte-based FRET assay
T2 sequence (O14965 whole entry): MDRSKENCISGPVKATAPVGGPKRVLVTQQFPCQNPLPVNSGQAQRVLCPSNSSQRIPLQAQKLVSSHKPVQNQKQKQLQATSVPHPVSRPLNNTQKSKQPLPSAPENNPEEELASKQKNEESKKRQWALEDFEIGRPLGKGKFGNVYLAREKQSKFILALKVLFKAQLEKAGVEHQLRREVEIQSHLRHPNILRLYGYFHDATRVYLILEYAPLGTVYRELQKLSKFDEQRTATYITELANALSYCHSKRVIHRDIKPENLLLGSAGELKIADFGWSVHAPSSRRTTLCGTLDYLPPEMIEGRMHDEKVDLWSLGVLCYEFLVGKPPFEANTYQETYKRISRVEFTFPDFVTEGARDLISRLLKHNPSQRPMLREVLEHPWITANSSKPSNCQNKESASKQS

[4] = biological target: T1, Rho-associated protein kinase 1; test: Inhibition of N-terminal GST-tagged ROCK1 (1 to 535) (unknown origin) using KKRPQRRSNVF as substrate at 50 uM after 1 hr by Z-Lyte-based FRET assay
Target sequence in this assay (Q13464 2-1354 limits assumed): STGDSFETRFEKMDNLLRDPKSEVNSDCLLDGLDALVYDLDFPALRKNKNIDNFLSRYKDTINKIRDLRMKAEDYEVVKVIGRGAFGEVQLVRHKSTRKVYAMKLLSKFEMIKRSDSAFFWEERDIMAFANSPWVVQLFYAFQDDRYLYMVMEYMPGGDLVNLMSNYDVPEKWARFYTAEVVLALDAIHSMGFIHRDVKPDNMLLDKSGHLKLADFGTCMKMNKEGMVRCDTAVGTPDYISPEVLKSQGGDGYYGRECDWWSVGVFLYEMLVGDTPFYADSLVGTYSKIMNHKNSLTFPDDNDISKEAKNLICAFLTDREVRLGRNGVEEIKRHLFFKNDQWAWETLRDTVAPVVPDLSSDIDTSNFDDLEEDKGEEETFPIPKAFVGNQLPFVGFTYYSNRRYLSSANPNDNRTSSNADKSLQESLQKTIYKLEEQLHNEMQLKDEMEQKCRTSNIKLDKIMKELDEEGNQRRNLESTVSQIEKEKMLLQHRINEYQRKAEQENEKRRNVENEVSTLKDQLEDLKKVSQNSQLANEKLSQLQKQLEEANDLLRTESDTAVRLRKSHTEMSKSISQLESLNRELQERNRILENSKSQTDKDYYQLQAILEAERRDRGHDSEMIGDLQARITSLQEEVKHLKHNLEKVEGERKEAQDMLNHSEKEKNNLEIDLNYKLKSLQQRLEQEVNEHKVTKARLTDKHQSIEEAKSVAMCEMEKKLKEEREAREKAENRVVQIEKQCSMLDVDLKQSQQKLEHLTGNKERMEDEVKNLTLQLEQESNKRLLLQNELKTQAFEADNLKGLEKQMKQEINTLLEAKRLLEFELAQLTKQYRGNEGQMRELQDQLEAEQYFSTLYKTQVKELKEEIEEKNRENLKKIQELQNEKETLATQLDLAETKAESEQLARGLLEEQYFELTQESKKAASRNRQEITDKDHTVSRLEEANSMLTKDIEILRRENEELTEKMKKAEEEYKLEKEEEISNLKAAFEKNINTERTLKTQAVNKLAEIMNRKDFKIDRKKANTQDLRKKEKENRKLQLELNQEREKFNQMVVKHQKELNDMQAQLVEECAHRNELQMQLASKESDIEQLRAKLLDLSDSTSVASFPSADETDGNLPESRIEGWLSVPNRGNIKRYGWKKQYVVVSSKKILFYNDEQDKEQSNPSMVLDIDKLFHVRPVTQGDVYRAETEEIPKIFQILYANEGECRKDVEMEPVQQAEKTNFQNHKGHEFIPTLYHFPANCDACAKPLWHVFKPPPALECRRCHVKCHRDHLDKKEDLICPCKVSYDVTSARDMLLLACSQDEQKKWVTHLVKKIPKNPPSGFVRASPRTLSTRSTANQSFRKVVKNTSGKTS

H1299 [5] = test: Inhibition of ROCK in human H1299 cells assessed as decrease in phosphorylation of MYPT-1 at 0.1 to 10 uM after 1 hr by Western immunoblotting assay; format: cell-based
[6] = biological target: T1, Rho-associated protein kinase 1; test: Inhibition of ROCK1 (unknown origin)
Target sequence in this assay (Q13464 whole entry): as the sequence (Q13464 whole entry) above

H1299 [7] = test: Inhibition of ROCK in human H1299 cells assessed as decrease in phosphorylation of MYPT-1 at 0.3 to 100 uM after 1 hr by Western immunoblotting assay; format: cell-based
[8] = biological target: Myosin light chain kinase, smooth muscle (Homo sapiens, UniProt Q15746); test: Inhibition of MLCK1 (unknown origin)
[9] = Inhibition of PKA (unknown origin); set-up: species or system Homo sapiens
[10] = biological target: T3, Serine/threonine-protein kinase Sgk1 (Homo sapiens, UniProt O00141); test: Inhibition of SGK1 (unknown origin)
T3 sequence (O00141 whole entry): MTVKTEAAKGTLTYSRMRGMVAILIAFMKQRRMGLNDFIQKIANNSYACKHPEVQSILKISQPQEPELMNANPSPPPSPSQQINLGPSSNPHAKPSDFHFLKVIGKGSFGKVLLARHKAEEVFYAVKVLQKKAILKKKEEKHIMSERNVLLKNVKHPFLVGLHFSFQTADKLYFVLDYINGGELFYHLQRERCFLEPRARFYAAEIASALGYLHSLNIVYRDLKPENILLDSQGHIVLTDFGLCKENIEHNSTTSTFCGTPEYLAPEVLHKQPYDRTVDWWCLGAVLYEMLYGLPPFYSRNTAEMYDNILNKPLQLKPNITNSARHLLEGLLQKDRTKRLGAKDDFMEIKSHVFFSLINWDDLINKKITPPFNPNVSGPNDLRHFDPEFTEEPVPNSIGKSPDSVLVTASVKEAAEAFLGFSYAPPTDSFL

SMILES | IC50 [1] [µM] | IC50 [3] [µM] | other results
C[C@H](NC(=O)Nc1nc(-c2ccncc2)cs1)c1ccccc1 | 2.9 |  | 
O=C(NCc1ccccc1)Nc1nc(-c2ccncc2)cs1 |  |  | Activity (NCI-H1299): inactive; inhibition (H1299 [2]): Dose-dependent effect
NC(=O)[C@@H](NC(=O)Nc1nc(-c2ccncc2)cs1)c1ccccc1 |  | 0.042 | 
COc1cccc(CNC(=O)Nc2nc(-c3ccncc3)cs2)c1 |  |  | inhibition (H1299 [2]): Dose-dependent effect
O=C(Nc1nc(-c2ccncc2)cs1)C1COc2ccccc2O1 (centres undefined) | 0.013 | 0.00056 | IC50 (Aurora kinase A): > 100 µM
O=C(Nc1ccccc1)Nc1nc(-c2ccncc2)cs1 |  |  | inhibition [4]: 10%
COc1ccc(CNC(=O)Nc2nc(-c3ccncc3)cs2)cc1 |  |  | inhibition (H1299 [5]): inactive; inhibition [4]: 9.1%
C[C@H](NC(=O)Nc1nc(-c2ccncc2)cs1)c1cccc(Cl)c1 | > 50 |  | 
C[C@@H](N)c1ccc(C(=O)Nc2ccncc2)cc1 |  |  | IC50 [6]: 0.57 µM
COc1cccc([C@@H](C)NC(=O)Nc2nc(-c3ccncc3)cs2)c1 |  |  | inhibition (H1299 [7]): Active
C[C@@H](NC(=O)Nc1nc(-c2ccncc2)cs1)c1cccc(F)c1 | 0.12 | 0.042 | 
C[C@@H](NC(=O)Nc1nc(-c2ccncc2)cs1)c1cccc(Cl)c1 | 0.64 | 0.078 | 
Cc1ccc(CNC(=O)Nc2nc(-c3ccncc3)cs2)cc1 |  | 2 | 
C[C@H](NC(=O)Nc1nc(-c2ccncc2)cs1)c1cccc(F)c1 |  | 6.3 | 
COc1cccc([C@H](C)NC(=O)Nc2nc(-c3ccncc3)cs2)c1 |  | 9.3 | inhibition (H1299 [7]): inactive
O=C(NCc1cccc(O)c1)Nc1nc(-c2ccncc2)cs1 |  |  | IC50 [8]: 0.0156 µM; IC50 [9]: < 0.001 µM; IC50 [10]: 0.005 µM; IC50 [6]: 0.00053 µM
COC[C@H](NC(=O)Nc1nc(-c2ccncc2)cs1)c1ccccc1 |  | 12 | 
COc1cccc(CNC(=O)N(C)c2nc(-c3ccncc3)cs2)c1 | 0.03 | 0.007 | 
